Source: patent US20260248787A9, “MEDICAMENT FOR TREATING CANCER COMPRISING OPTICALLY ACTIVE AZABICYCLO RING DERIVATIVE” (Sumitomo Pharma Co., Ltd., priority 2023, published 2026)

Test: Phase 1/2 first-in-human clinical study, safety evaluation (DLT, TEAE, SAE)
Details: for SAE Differentiation syndrome, CTCAE Grade: Related
[1] = cut-off, 40-300 mg BID, unrelated to study drug
[2] = patient US053A-0001, 80 mg BID Arm A, Not related, Recovered/Resolved
[3] = patient US154A-0002, 40 mg BID Arm B, Not related, Not recovered/Not resolved
[4] = patient US154A-0004, 100 mg BID Arm A, Not related, Recovered/Resolved
[5] = patient US185A-0001, 100 mg BID Arm A, Not related, Not recovered/Not resolved
[6] = patient US185A-0006, 120 mg BID Arm A, Not related, Fatal

Experimental: Arm A: Patients without azole antifungal treatment within 7 days (or 21 days for isavuconazole) of first dose of the present compound
Arm B: Patients receiving posaconazole, voriconazole, or fluconazole antifungal prophylaxis at enrollment
The safety of each dose level also was evaluated by the SRC, which was comprised of all investigators participating in the study and selected Sponsor study team members. The dose recommended by the BLRM method was treated as guidance and was integrated with a clinical assessment of toxicity information and review of other available data, including safety, PK, pharmacodynamic, and laboratory data.
When the Dose Limiting Toxicity (DLT) evaluation for each cohort was completed, the SRC determined a next dose level based on the DLT and other available data, including safety, PK, pharmacodynamic, and laboratory data with reference to the Bayesian Logistic Regression Model (BLRM) recommendation.
Dose escalation decisions were made after all patients in a dose level cohort have at least completed Cycle 1. All available data were presented along with the BLRM predictions for toxicity probabilities at the potential next dose levels. The SRC then determined the dose(s) for the next cohort(s).

C=C1C[C@@H]2CC[C@H]1[C@@H](C(=O)N1CCC3(CC1)CN(c1ncncc1Oc1ccc(F)cc1C(=O)N(C(C)C)C(C)C)C3)N2 [the present compound, 5-fluoro-2-[(4-{7-[(1S,3S,4R)-5-methylidene-2-azabicyclo[2.2.2]octane-3-carbonyl]-2,7-diazaspiro[3.5]nonan-2-yl}pyrimidin-5-yl)oxy]-N,N-di(propan-2-yl)benzamide]
Non-hematological TEAE regardless of causality: COVID-19 (N=57, Grade ≥3): 3 (5.3%) n (%)
Non-hematological TEAE regardless of causality: Constipation (N=57, Grade ≥3): 1 (1.8%) n (%)
Non-hematological TEAE regardless of causality: Cough (N=57, Grade ≥3): 0 (0.0%) n (%)
Non-hematological TEAE regardless of causality: Decreased appetite (N=57, Grade ≥3): 2 (3.5%) n (%)
Non-hematological TEAE regardless of causality: Diarrhoea (N=57, Grade ≥3): 0 (0.0%) n (%)
Non-hematological TEAE regardless of causality: Dizziness (N=57, Grade ≥3): 0 (0.0%) n (%)
Non-hematological TEAE regardless of causality: Dysgeusia (N=57, Grade ≥3): 0 (0.0%) n (%)
Non-hematological TEAE regardless of causality: Dyspnoea (N=57, Grade ≥3): 3 (5.3%) n (%)
Non-hematological TEAE regardless of causality: Electrocardiogram QT prolonged (N=57, Grade ≥3): 2 (3.5%) n (%)
Non-hematological TEAE regardless of causality: Epistaxis (N=57, Grade ≥3): 1 (1.8%) n (%)
Non-hematological TEAE regardless of causality: Fatigue (N=57, Grade ≥3): 1 (1.8%) n (%)
Non-hematological TEAE regardless of causality: Haemorrhage intracranial (N=57, Grade ≥3): 4 (7.0%) n (%)
Non-hematological TEAE regardless of causality: Headache (N=57, Grade ≥3): 0 (0.0%) n (%)
Non-hematological TEAE regardless of causality: Hypertension (N=57, Grade ≥3): 3 (5.3%) n (%)
Non-hematological TEAE regardless of causality: Hypotension (N=57, Grade ≥3): 2 (3.5%) n (%)
Non-hematological TEAE regardless of causality: Muscular weakness (N=57, Grade ≥3): 2 (3.5%) n (%)
Non-hematological TEAE regardless of causality: Myalgia (N=57, Grade ≥3): 0 (0.0%) n (%)
Non-hematological TEAE regardless of causality: Nausea (N=57, Grade ≥3): 4 (7.0%) n (%)
Non-hematological TEAE regardless of causality: Oedema peripheral (N=57, Grade ≥3): 0 (0.0%) n (%)
Non-hematological TEAE regardless of causality: Pain in extremity (N=57, Grade ≥3): 1 (1.8%) n (%)
Non-hematological TEAE regardless of causality: Pneumonia (N=57, Grade ≥3): 10 (17.5%) n (%)
Non-hematological TEAE regardless of causality: Pyrexia (N=57, Grade ≥3): 0 (0.0%) n (%)
Non-hematological TEAE regardless of causality: Sepsis (N=57, Grade ≥3): 10 (17.5%) n (%)
Non-hematological TEAE regardless of causality: Stomatitis (N=57, Grade ≥3): 0 (0.0%) n (%)
Non-hematological TEAE regardless of causality: Vomiting (N=57, Grade ≥3): 3 (5.3%) n (%)
Non-hematological laboratory change regardless of causality: ALT increase (N=57, Grade ≥3): 0 (0.0%) n (%)
Non-hematological laboratory change regardless of causality: AST increase (N=57, Grade ≥3): 1 (1.8%) n (%)
Non-hematological laboratory change regardless of causality: Hypertriglyceridemia (N=57, Grade ≥3): 4 (7.0%) n (%)
Non-hematological laboratory change regardless of causality: Hypocalcemia (N=57, Grade ≥3): 2 (3.5%) n (%)
Non-hematological laboratory change regardless of causality: Hypokalemia (N=57, Grade ≥3): 10 (17.2%) n (%)
Non-hematological laboratory change regardless of causality: Hypomagnesemia (N=57, Grade ≥3): 1 (1.8%) n (%)
Non-hematological laboratory change regardless of causality: Hyponatremia (N=57, Grade ≥3): 0 (0.0%) n (%)
Non-hematological laboratory change regardless of causality: Hypophosphatemia (N=57, Grade ≥3): 11 (19.3%) n (%)
Treatment related adverse event: Nausea (N=57, Grade ≥3): 1 (1.8%) n (%)
Treatment related adverse event: Vomiting (N=57, Grade ≥3): 1 (1.8%) n (%)
TEAE in ≥20% of patients regardless of causality: Fatigue (Total N=43, 40-200 mg BID): 10 (23.3%) n (%)
TEAE in ≥20% of patients regardless of causality: Hypokalaemia (Total N=43, 40-200 mg BID): 9 (20.9%) n (%)
TEAE in ≥20% of patients regardless of causality: Nausea (Total N=43, 40-200 mg BID): 15 (34.9%) n (%)
TEAE in ≥20% of patients regardless of causality: Vomiting (Total N=43, 40-200 mg BID): 10 (23.3%) n (%)
TEAE related to the present compound in ≥2 patients: Decreased appetite (Total N=43, 40-200 mg BID): 3 (7.0%) n (%)
TEAE related to the present compound in ≥2 patients: Nausea (Total N=43, 40-200 mg BID): 3 (7.0%) n (%)
TEAE related to the present compound in ≥2 patients: Vomiting (Total N=43, 40-200 mg BID): 4 (9.3%) n (%)
Possible differentiation syndrome (DS) (cut-off, 40-300 mg BID): 3 pts
TEAE assessed as related: nausea (cut-off, 40-300 mg BID): 12.1%
TEAE assessed as related: vomiting (cut-off, 40-300 mg BID): 15.5%
mortality from DS (cut-off, 40-300 mg BID): no mortality
Grade >3 TEAE: anemia [1]: 13.8%
Grade >3 TEAE: febrile neutropenia [1]: 15.5%
Grade >3 TEAE: platelet count decrease [1]: 12.1%
Grade >3 TEAE: pneumonia [1]: 17.2%
Grade >3 TEAE: sepsis [1]: 15.5%
DLT (cut-off, any dose level of 40-300 mg BID): No DLT
patients with related asymptomatic Grade 3 QT prolongation (cut-off, in the presence of other QT prolonging drugs): One
DLT (n=81, 40 mg BID to 300 mg BID): no DLT
Grade 3 nausea and vomiting (n=81, 40-300 mg BID): 1 patient
TEAE assessed as related: nausea (n=81, 40-300 mg BID): 12.3%
TEAE assessed as related: vomiting (n=81, 40-300 mg BID): 14.8%
TEAE regardless of relationship: decreased appetite (n=81, 40-300 mg BID): 21.0%
TEAE regardless of relationship: diarrhea (n=81, 40-300 mg BID): 21.0%
TEAE regardless of relationship: febrile neutropenia (n=81, 40-300 mg BID): 22.2%
TEAE regardless of relationship: hypokalemia (n=81, 40-300 mg BID): 21.0%
TEAE regardless of relationship: nausea (n=81, 40-300 mg BID): 37.0%
TEAE regardless of relationship: vomiting (n=81, 40-300 mg BID): 29.6%
grade ≥3 QTc prolongation related to the compound (n=81, 40-300 mg BID): no reports
SAE Sepsis, CTCAE Grade (patient JP002A-0001, 40 mg BID Arm A, Not related, Not recovered/Not resolved): 3
SAE Malignant neoplasm progression, CTCAE Grade (patient JP002A-0003, 60 mg BID Arm B, Not related, Fatal): 5
SAE Disease progression, CTCAE Grade (patient JP007A-0002, 60 mg BID Arm B, Not related, Not recovered/Not resolved): 3
SAE Sepsis, CTCAE Grade (patient JP007A-0002, 60 mg BID Arm B, Not related, Recovered/Resolved): 4
SAE Pneumonia, CTCAE Grade (patient JP028A-0001, 40 mg BID Arm B, Not related, Fatal): 5
SAE Pneumonia, CTCAE Grade (patient JP028A-0001, 40 mg BID Arm B, Not related, Recovered/Resolved (one continuous event with the Grade 5)): 4
SAE Haemorrhage intracranial, CTCAE Grade (patient US053A-0001, 80 mg BID Arm A, Not related, Fatal): 5
SAE Atrial fibrillation, CTCAE Grade [2]: 3
SAE Pneumonia, CTCAE Grade [2]: 3
SAE Respiratory failure, CTCAE Grade [2]: 4
SAE Differentiation syndrome, CTCAE Grade (patient US053A-0001, 80 mg BID Arm A, Drug interrupted, Recovered/Resolved): 4
SAE Differentiation syndrome, CTCAE Grade (patient US053A-0001, 80 mg BID Arm A, action Not applicable, Recovered/Resolved): 3
SAE Pneumonia, CTCAE Grade (patient US053A-0002, 40 mg BID Arm B, Not related, Recovered/Resolved): 3
SAE Disease progression, CTCAE Grade (patient US154A-0001, 80 mg BID Arm A, Not related, Fatal): 5
SAE Disease progression, CTCAE Grade (patient US154A-0002, 40 mg BID Arm B, Not related, Fatal): 5
SAE Bone pain, CTCAE Grade [3]: 3
SAE Malaise, CTCAE Grade [3]: 3
SAE Pyrexia, CTCAE Grade [4]: 1
SAE Respiratory failure, CTCAE Grade [4]: 2
SAE Leukocytosis, CTCAE Grade (patient US154A-0004, 100 mg BID Arm A, Not related, Recovering/Resolving): 4
SAE Leukocytosis, CTCAE Grade (patient US158A-0002, 120 mg BID Arm A, Not related, Recovered/Resolved): 1
SAE Acute myeloid leukaemia, CTCAE Grade (patient US185A-0001, 100 mg BID Arm A, Not related, Fatal): 5
SAE Cerebrovascular accident, CTCAE Grade [5]: 4
SAE Haemorrhage intracranial, CTCAE Grade [5]: 2
SAE Electrocardiogram QT prolonged, CTCAE Grade (patient US185A-0001, 100 mg BID Arm A, Not related, Recovered/Resolved, hypomagnesaemia at the time): 3
SAE Febrile neutropenia, CTCAE Grade (patient US185A-0002, 40 mg BID Arm B, Not related, Recovered/Resolved): 3
SAE Sepsis, CTCAE Grade (patient US185A-0002, 40 mg BID Arm B, Not related, Recovering/Resolving): 3
SAE Lung infection (pneumonia), CTCAE Grade [6]: 5
SAE Multiple organ dys function syndrome, CTCAE Grade [6]: 5
SAE Sepsis, CTCAE Grade [6]: 5
SAE Pneumonia fungal, CTCAE Grade (patient US210A-0001, 80 mg BID Arm A, Not related, Fatal): 5
SAE Rectal haemorrhage, CTCAE Grade (patient US210A-0001, 80 mg BID Arm A, Not related, Recovered/Resolved): 4
SAE Cellulitis, CTCAE Grade (patient US210A-0002, 120 mg BID Arm A, Not related, Recovered/Resolved): 3
safety profile between Arm A and Arm B (without vs with azole antifungals): not different
